How the values were obtained:
[1] = Stability in human hepatocytes; format: in vitro ADME; conditions: 0.5 μM, 120 min
[2] = Stability in mouse hepatocytes; format: in vitro ADME; conditions: 0.5 μM, 60 min
[3] = Stability in rat hepatocytes; format: in vitro ADME; conditions: 0.5 μM, 60 min
[4] = Pharmacokinetics in CD-1 IGS mouse; conditions: mouse PK studies; for parent recovered in feces following iv administration: data not shown

Structure (SMILES) | scaled Clint, human hepatocytes [1] [mL min^–1 kg^–1] | scaled Clint, mouse hepatocytes [2] [mL min^–1 kg^–1] | scaled Clint, rat hepatocytes [3] [mL min^–1 kg^–1] | oral absorption [4] | parent recovered in feces following iv administration [4]
CC(=O)N1CCN([C@H]2CCC[C@@H](NC(=O)c3cc4c(F)ccc(C)c4[nH]3)C2)CC1 [EZM0414] | 9 | 216 | 154 | – | –
CC(=O)N1CCN(c2cccc(NC(=O)c3cc4c(F)ccc(C)c4[nH]3)c2)CC1 [compound 3] | 32 | 678 | 283 | – | –
CC(=O)N1CC[C@H]2[C@@H]1CCN2[C@H]1CCC[C@@H](NC(=O)c2cc3c(F)ccc(C)c3[nH]2)C1 [compound 9] | 5 | 103 | 72 | reasonable oral absorption | 17–30%
Cc1ccc(F)c2cc(C(=O)N[C@@H]3CCC[C@H](N4CCN5C(=O)CC[C@H]5C4)C3)[nH]c12 [compound 7] | 23 | 425 | 69 | – | –
Cc1ccc(F)c2cc(C(=O)N[C@@H]3CCC[C@H](N4CC[C@H](N(C)S(C)(=O)=O)C4)C3)[nH]c12 [EPZ-719, reference compound] | 51 | 721 | 137 | – | –
CC(=O)N1CC[C@H]2CN([C@H]3CCC[C@@H](NC(=O)c4cc5c(F)ccc(C)c5[nH]4)C3)C[C@H]21 [compound 8] | 18 | 889 | 265 | reasonable oral absorption | 17–30%
